Results reported in US11607421B2, “Ethanolamine-based lipid biosynthetic compounds, method of making and use thereof” (Metanoi Therapeutics, Inc., priority 2016, dated 2023).

Legend:
RWPE-1 = experiment: MTT cell proliferation assay, normal prostate cells; type: cell-based; details: 0.5 mg/ml Etn, 48 h
Description: After 48 h, drug containing medium was replaced by medium containing MTT (tetrazolium bromide) at a concentration of 0.5 mg/ml. The yellow tetrazolium salt is reduced to insoluble purple formazan by viable cells. After 4 h of incubation in dark, formazan crystals produced by viable cells were dissolved by 200 μl DMSO and the amount of formazan crystals formed was quantified by recording the absorbance at 570 nm using multi-well plate reader. […] After 10 days, colonies were fixed with 4% formaldehyde, stained with crystal violet and counted.

[1] = parameters: species or system BALB/c mice; details: mouse, in vivo, 40 mg/kg
Description: Mice were sacrificed after 24, 48 h and 1, 2, 3, 4 weeks and spleens were collected. Total splenocytes were counted after lysis of RBC with RBC lysis buffer. After this, splenocytes where incubated with anti-CD16/CD32 antibody to block Fc receptors and then labeled with anti-CD3-APC, anti-CD4-Alexa488, anti-CD8-Alexa488, anti-DX5-FITC, or anti-CD19-FITC antibodies according to the manufacturer's instructions. Labeled cells were analyzed by flow cytometry using an LSRFortessa Flow cytometer (BD Biosciences, CA). Data from this analysis was analyzed using FlowJo software (TreeStar, OR).

[2] = Pharmacokinetic studies, single oral and intravenous dose; type: in vivo, BALB/c mice
Description: (§1) Samples (100 μl) were drawn at 0, 15, 30 and 60 min from SGF reaction-vials and at 0, 30, 60 and 120 min from SIF reaction-vials, quenched with acetonitrile, vortex-mixed, and centrifuged before supernatant analysis by LC-MS/MS analysis. […] For PK studies, a sparse sampling design with 3 mice per time point was used to collect blood samples at 5, 10, 15, 30 min and 1, 2, 3, 4, 5 and 6 h in K2EDTA-coated tubes. The pharmacokinetic parameters (AUClast, Cmax, CL and Vss) were calculated using non-compartmental analysis tool of Phoenix WinNonlin software (version 6.3).
Nine animals per group were used for PK studies. A sparse sampling design was used to collect blood samples from animals at 5 min, 10 min, 15 min, 30 min, 1, 2, 3, 4, 5, and 6 h in K2EDTA coated tubes. Plasma was collected from blood by centrifugation of samples at 8000 g for 10 min. Plasma samples were stored below −60° C. until further analysis.
PK parameters were calculated from the concentration-time data using the non-compartmental analysis tool of Phoenix WinNolin® software (version 6.3, Pharsight, St Louis, Mo.). The area under the concentration time curve (AUClast) was calculated by the linear trapezoidal rule. Following oral administration, peak concentration (Cmax) and time for the peak concentration (Tmax) were the observed values. The clearance (CL) and volume of distribution (Vss) were estimated following IV dose administration. The elimination rate constant value (k) was obtained by linear regression of the log-linear terminal phase of the concentration-time profile using at least three declining concentrations in terminal phase with a correlation coefficient of >0.8. The terminal half-life value (T1/2) was calculated using the equation ln 2/k. Oral bioavailability was calculated by taking the ratio of dose normalized AUClast following oral administration to IV administration.

[3] = test system: pRb, Cdk4, Cdk2, p21, c-PARP, Bim, Bcl-2; experiment: Immunoblot of cell lysates; type: cell-based, human; details: PC-3 cells, 2 mg/ml Etn for 48 h
Description: (§2) OCR was measured using an oxygen electrode.
Proteins were resolved by polyacrylamide gel electrophoresis and transferred onto polyvinylidene difluoride membranes (Millipore, Billerica, Mass., USA). The membranes were blocked in Tris-buffered saline containing 0.05% Tween-20 and 5% fat-free dry milk and incubated first with primary antibodies and then with horseradish peroxidase-conjugated secondary antibodies. Specific proteins were visualized with enhanced chemiluminescence detection reagent according to the manufacturer's instructions (Pierce Biotechnology, Rockford, Ill., USA).

DU145 = DU145 prostate tumor xenograft; details: 40 mg/kg Etn, oral gavage, 4 weeks
PC-3 cells [4] = experiment: Glucose and glutamine contents in cultured cells (LC-MS/MS); details: 2 mg/ml Etn for 48 h vs control cells
CYP2D6 = CYP2D6 (Homo sapiens, UniProt P10635); experiment: CYP inhibition in human liver microsomes
CYP2D6, sequence (P10635 whole entry): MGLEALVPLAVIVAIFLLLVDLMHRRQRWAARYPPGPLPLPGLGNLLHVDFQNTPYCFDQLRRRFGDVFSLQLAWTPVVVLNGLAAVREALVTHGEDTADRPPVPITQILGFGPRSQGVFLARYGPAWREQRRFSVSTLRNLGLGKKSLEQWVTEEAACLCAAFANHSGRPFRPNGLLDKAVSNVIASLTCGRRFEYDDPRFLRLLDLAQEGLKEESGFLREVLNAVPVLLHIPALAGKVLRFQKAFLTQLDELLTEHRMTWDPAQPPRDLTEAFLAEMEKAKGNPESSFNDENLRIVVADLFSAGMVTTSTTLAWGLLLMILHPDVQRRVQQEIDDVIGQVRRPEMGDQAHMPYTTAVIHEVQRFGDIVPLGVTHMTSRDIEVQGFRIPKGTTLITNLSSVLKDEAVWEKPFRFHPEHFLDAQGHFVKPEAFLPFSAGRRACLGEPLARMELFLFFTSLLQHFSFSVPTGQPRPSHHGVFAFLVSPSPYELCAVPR

CYP2C19 = CYP2C19 (Homo sapiens, UniProt P33261); experiment: CYP inhibition in human liver microsomes
CYP2C19, sequence (P33261 whole entry): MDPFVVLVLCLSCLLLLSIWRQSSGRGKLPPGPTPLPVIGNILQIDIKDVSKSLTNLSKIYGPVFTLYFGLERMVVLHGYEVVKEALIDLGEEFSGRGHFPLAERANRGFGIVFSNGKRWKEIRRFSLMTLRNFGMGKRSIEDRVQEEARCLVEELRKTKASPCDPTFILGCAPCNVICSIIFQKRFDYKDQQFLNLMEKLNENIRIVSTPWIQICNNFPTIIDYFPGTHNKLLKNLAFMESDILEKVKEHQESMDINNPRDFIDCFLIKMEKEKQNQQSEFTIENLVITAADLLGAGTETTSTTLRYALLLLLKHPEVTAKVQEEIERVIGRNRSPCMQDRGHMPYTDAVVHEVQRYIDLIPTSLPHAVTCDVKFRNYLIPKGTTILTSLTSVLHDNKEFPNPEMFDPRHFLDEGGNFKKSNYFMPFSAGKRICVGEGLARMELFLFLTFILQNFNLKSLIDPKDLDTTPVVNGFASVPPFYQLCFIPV

[5] = Stability in simulated gastric fluid (SGF); type: in vitro ADME; details: 10 μM, SGF pH 1.2, over 1 h
Description: as §1
Given the extreme pH and various digestive enzymes, the GI tract presents a harsh environment to any ingested xenobiotic. Thus, many potential drug candidates are degraded in the GI tract, explaining their decreased bioavailability or inability to reach the target at effective concentrations. Simulated gastric fluid (SGF; pH 1.2) and simulated intestinal fluid (SIF; pH 6.8) closely mimic the GI tract environment and are amenable in vitro systems to evaluate degradation of a compound in GI tract (US Pharmacopoia).
Simulated gastric fluid was prepared as per U.S. Pharmacopeia (USP) methods. Sodium chloride (2 g) and pepsin (3.2 g, from porcine stomach mucosa) were dissolved in 7.0 ml hydrochloric acid and Milli-Q water to make up the volume to 1000 ml and the pH was adjusted to 1.2. […]

PC-3 cells [6] = experiment: Oxygen consumption rate (OCR), oxygen electrode; type: cell-based, human; details: 2 mg/ml Etn, 48 h, 1×10^6 cells/ml
Description: as §2
OCRs were measured using a computer-interfaced oxygen electrode (Hansatech Instruments, Inc., Norfolk, England) by monitoring the initial rate of oxygen consumption at 37° C. and atmospheric oxygen concentration (230 μM O2).

NCCO [Etn, monoethanolamine]
reduction of survival (RWPE-1): remained unaffected | immunotoxicities [1]: does not induce immunotoxicities | AUClast of Etn compared to PhosE ([2]; oral 40 mg/kg Etn): 13 fold | Cmax of Etn compared to PhosE ([2]; oral 40 mg/kg Etn): 32 fold | time to reach peak plasma concentration ([2]; oral Etn administration, analyte Etn): 10 min | protein expression of apoptosis regulators [3]: an increase in protein expression of proapoptotic markers (c-PARP and Bim) and a decrease in antiapoptotic molecules (Bcl-2) | protein expression of cell-cycle regulators [3]: downregulated protein expression of pRb, Cdk4, and Cdk2, and upregulated p21 expression | reduction in tumor volume (DU145): ~42% | reduction in tumor weight (DU145): ~29% | glucose and glutamine contents (PC-3 cells [4]): significantly reduced | IC50 (CYP2D6): > 100 µM | IC50 (CYP2C19): > 100 µM | stability in SGF [5]: stable | reduction of OCR compared to controls (PC-3 cells [6]): ~26%
